For series [1] the following is noted: cited from earlier work.
Series [2] can be described thus: Solution stability test (HPLC) of single bile acid with maltodextrin in aqueous solution, Example I. It counts as physicochemical. On the procedure: (§1) The stability of dosage formulations of the invention were evaluated by measuring the concentration of the relevant bile acid over time in preparations comprising soluble bile acid, a high molecular weight aqueous soluble starch conversion product, and water at various pH and temperature levels. The retention time of each bile acid may be adjusted as needed to permit individual analysis each bile acid present in a complex samples, i.e. a sample having a plurality of bile acids.
(§2) The stability tests were conducted on three different aqueous solution systems: […].
(§3) The stability tests were performed with HPLC and microscope light at various pH conditions under the normal and accelerated conditions. Accelerated conditions for testing pharmaceutical compositions have been described (Remington, The Science and Practice of Pharmacy, 19th ed., p. 640). […] Thus, the formulations of the examples are suitable for preparing a commercial liquid dosage form. […] Some formulations remain stable for over 2 years.
(§4) For the solution stability test for each bile acid, HPLC was used to measure the concentration of the relevant soluble bile acid under the following conditions: the elution solvent of 0.02 M KH2PO4:acetonitrile in a ratio of 55:45, with a pH of 3.01, the flow rate was 0.8 mL/min., the injection volume was 20 μL, wave length for detection was 195 nm. In the tables, the concentration of the indicated bile acid salt for each of the three numbered trials and the average thereof is reported on each line. The percentage indicates the relative concentration of the bile acid salt after incubation for a certain amount of time in comparison with the initial concentration.
100 mL of the aqueous solution in which one of the above bile acids is dissolved was prepared. Into the resulting clear solution, maltodextrin, a high molecular weight aqueous soluble starch conversion product, was added with agitation at room temperature. Purified water was added to adjust the total volume to be 100 mL. According to the instant invention and all examples, purified water is deionized, distilled deionized-distilled water, or a grade commonly used for pharmaceutical preparations.

A short description of series [3]: Solution stability test (HPLC) of mixed bile acids with maltodextrin in aqueous solution, Example II. Format: physicochemical. The note with it: Table 2: pH 1, 50° C. The procedure: as §1, §2, §3, §4
Into the resulting clear solution, maltodextrin was added with agitating at room temperature. Purified water was added to adjust the total volume to be 100 mL.

Series [4] can be described thus: Hematic levels of UDCA and glyco UDCA after oral administration of 200 mg UDCA aqueous solution to three healthy men (Example VI). Format: in vivo, human. The conditions noted are these: male, human, in vivo, po, 200 mg. On the procedure: The aqueous solution dosage forms, according to this invention, containing 200 mg of ursodeoxycholic acid (UDCA), were prepared according to the method described in the above-described Example III and were administered to three healthy men having normal body weight after fasting. The hematic levels of UDCA and glyco UDCA were evaluated by means of well known chemical methods. After applying buffered serum to sep-pak column, methanol eluate was derivatized with phenacyl bromide at 80° C. for 45 minutes. These phenacyl bromide derivatives were dissolved in acetonitrile in preparation for HPLC. The experimental results of the absorption measured at certain times after dosage administration include the total absorption expressed as the area under the serum concentration-time curve (AUC: μg/mL×hours), the maximum hematic concentration (Cmax; μg/mL) that has been obtained, and the time (Tmax; hour) in which said maximum concentration has been obtained.
The experimental pharmacokinetic tests of the aqueous solution dosage forms according to this invention carried out on men show substantial improvement in AUC, Cmax and Tmax in comparison with the best results from any dosage forms known presently.
Table 4A and Table 4B show plasma concentration of UDCA and GUDCA measured in 3 men over time following on oral administration of the UDCA and GUDCA containing formulations according to Example VI and comparison of results against results of others employing different pharmaceutical formulations of UDCA.

Setting [5] is: Table 1B: pH 10, 50° C., day 20.

Each structure is given as a SMILES string. In brackets after ≈: the same amount, converted by molar mass. Several values for one entry are separate records, joined by “and”; a condition that tells them apart may be missing. Identical values can stand only once.

The solubility is the concentration that dissolves in the medium under given conditions. Regarding `C[C@H](CCC(=O)O)[C@H]1CC[C@H]2[C@@H]3CC[C@@H]4C[C@H](O)CC[C@]4(C)[C@H]3C[C@H](O)[C@]12C` [DCA, deoxycholic acid (3α, 12α-dihydroxy-5β-cholanic acid)], in series [1], the “solubility in the gastric juices and in aqueous hydrochloric acid solution” value is reported as “especially insoluble”. The solubility in series [1] (water) is 240 µg/mL (≈ 611 µM).

As for `C[C@H](CCC(=O)O)[C@H]1CC[C@H]2[C@@H]3[C@H](O)C[C@@H]4C[C@H](O)CC[C@]4(C)[C@H]3CC[C@]12C` [CDCA, chenodeoxycholic acid (3α, 7α-dihydroxy-5β-cholanic acid)], the “Percentage of day 0 concentration” value in series [2] (Table 1A: pH 7, 50° C., day 0) worked out at 100.0%; in series [2] (Table 1A: pH 7, 50° C., day 4) it was 101.6%; in series [2] (Table 1A: pH 7, 50° C., day 7), 105.0%; in series [2] (Table 1A: pH 7, 50° C., day 20), 105.7%; in series [2] (Table 1B: pH 10, 50° C., day 0), 100.0%; in series [2] (Table 1B: pH 10, 50° C., day 4) it was 100.0%. In addition, the “Percentage of day 0 concentration” value in series [2] (Table 1B: pH 10, 50° C., day 7) was 104.1%; in series [2] (setting [5]), 107.4%; in series [3] (day 0), 100.0%; in series [3] (day 4), 94.7%; in series [3] (day 7) it was 87.0%; in series [3] (day 20) it was 30.2%. The “concentration by HPLC, Average” value in series [2] (Table 1A: pH 7, 50° C., day 0) is given as 0.547; in series [2] (Table 1A: pH 7, 50° C., day 4), 0.556; in series [2] (Table 1A: pH 7, 50° C., day 7), 0.574; in series [2] (Table 1A: pH 7, 50° C., day 20), 0.578; in series [2] (Table 1B: pH 10, 50° C., day 0), 0.522; in series [2] (Table 1B: pH 10, 50° C., day 4), 0.523. In addition, the “concentration by HPLC, Average” value is given as 0.544 in series [2] (Table 1B: pH 10, 50° C., day 7); 0.561 in series [2] (setting [5]); 0.534 in series [3] (day 0); 0.506 in series [3] (day 4); 0.464 in series [3] (day 7); 0.161 in series [3] (day 20). Also, the “concentration by HPLC, trials #1-#3” value in series [2] (Table 1A: pH 7, 50° C., day 0) was 0.572 and 0.539 and 0.530; in series [2] (Table 1A: pH 7, 50° C., day 4), 0.540 and 0.552 and 0.576; in series [2] (Table 1A: pH 7, 50° C., day 7), 0.581 and 0.588 and 0.553; in series [2] (Table 1A: pH 7, 50° C., day 20), 0.565 and 0.608 and 0.560; in series [2] (Table 1B: pH 10, 50° C., day 0) it was 0.541 and 0.532 and 0.495; in series [2] (Table 1B: pH 10, 50° C., day 4), 0.511 and 0.519 and 0.538. For the same molecule, the “concentration by HPLC, trials #1-#3” value in series [2] (Table 1B: pH 10, 50° C., day 7) is 0.564 and 0.527 and 0.540; in series [2] (setting [5]) it was 0.556 and 0.569 and 0.558; in series [3] (day 0), 0.560 and 0.528 and 0.513; in series [3] (day 4), 0.488 and 0.510 and 0.519; in series [3] (day 7), 0.460 and 0.469 and 0.463; in series [3] (day 20), 0.169 and 0.154. The “solubility in the gastric juices and in aqueous hydrochloric acid solution” value in series [1] was “especially insoluble”. For the same molecule, the “solubility in the gastric pH range” value in series [1] is given as “no longer soluble”. In addition, the solubility in water result in series [1] is “practically insoluble”.

Regarding `C[C@H](CCC(=O)NCCS(=O)(=O)O)[C@H]1CC[C@H]2[C@@H]3[C@H](O)C[C@@H]4C[C@H](O)CC[C@]4(C)[C@H]3CC[C@]12C` [taurochenodeoxycholic acid], in series [1], the “solubility in hydrochloric acid solution” value is “insoluble”; the “solubility in the gastric juices and in aqueous hydrochloric acid solution” value was “especially insoluble”.

For `C[C@H](CCC(=O)NCCS(=O)(=O)O)[C@H]1CC[C@H]2[C@@H]3[C@@H](O)C[C@@H]4C[C@H](O)CC[C@]4(C)[C@H]3CC[C@]12C` [Tauroursodeoxycholic acid], in series [1], the “solubility in hydrochloric acid solution” value was “insoluble”; the “solubility in the gastric juices and in aqueous hydrochloric acid solution” value is recorded as “especially insoluble”.

As for `C[C@H](CCC(=O)O)[C@H]1CC[C@H]2[C@@H]3C[C@H](O)[C@@H]4C[C@H](O)CC[C@]4(C)[C@H]3CC[C@]12C` [hyodeoxycholic acid], the “solubility in the gastric juices and in aqueous hydrochloric acid solution” value in series [1] was “especially insoluble”.

As to `C[C@H](CCC(=O)O)[C@H]1CC[C@H]2[C@@H]3[C@H](O)C[C@@H]4C[C@H](O)CC[C@]4(C)[C@H]3C[C@H](O)[C@]12C` [CA, cholic acid (3α, 7α, 12α-trihydroxy-5β-cholanic acid)], the “Percentage of day 0 concentration” value in series [2] (Table 1A: pH 7, 50° C., day 0) came out at 100.0%; in series [2] (Table 1A: pH 7, 50° C., day 4) it was 95.4%; in series [2] (Table 1A: pH 7, 50° C., day 7), 100.8%; in series [2] (Table 1A: pH 7, 50° C., day 20) it was 103.0%; in series [2] (Table 1B: pH 10, 50° C., day 0) it was 100.0%; in series [2] (Table 1B: pH 10, 50° C., day 4), 99.1%. For the same molecule, the “Percentage of day 0 concentration” value in series [2] (Table 1B: pH 10, 50° C., day 7) was determined as 103.6%; in series [2] (setting [5]), 106.4%; in series [3] (day 0), 100.0%; in series [3] (day 4) it was 89.8%; in series [3] (day 7), 86.9%; in series [3] (day 20), 40.6%. The “concentration by HPLC, Average” value in series [3] (day 4) turned out to be 0.457; in series [3] (day 7), 0.443; in series [3] (day 20) it was 0.207. Moreover, the “concentration by HPLC, trials #1-#3” value in series [3] (day 4) was 0.453 and 0.466; in series [3] (day 7), 0.434 and 0.426 and 0.468; in series [3] (day 20) it was 0.207 and 0.206.

What is called AUC is the area under the concentration-time curve, a measure of exposure. A higher AUC goes with more exposure. What is called Cmax is the peak of the concentration-time curve. The Tmax is the time at which the peak concentration occurs. On to `C[C@H](CCC(=O)NCC(=O)O)[C@H]1CC[C@H]2[C@@H]3[C@@H](O)C[C@@H]4C[C@H](O)CC[C@]4(C)[C@H]3CC[C@]12C` [GUDCA, glycoursodeoxycholic acid], for which the AUC in series [4] (AUC, mean) was 4380 ± 1170 ng·h/mL. Moreover, the Cmax in series [4] (individual men #1-#3) was 1920 ng/mL; in series [4] (mean), 1600 ng/mL. Besides, the Tmax in series [4] (Tmax, mean) turned out to be 3.5 ± 1.5 h.

The values are drawn from patent publication US7166299B2, “Preparation of aqueous clear solution dosage forms with bile acids” (priority 1998, dated 2007).
